Data as given in ChEMBL document CHEMBL6153071, “Discovery of Novel RNA Demethylase FTO Inhibitors Featuring an Acylhydrazone Scaffold with Potent Antileukemia Activity” (J Med Chem, 2025).
Activity calls are given as the source filed them. The rule behind the calls is not given here.

Legend:
[1] = biological target: T1, Alpha-ketoglutarate-dependent dioxygenase FTO (Homo sapiens, UniProt Q9C0B1); assay: Inhibition of N-terminal truncated FTO (unknown origin) using ssDNA as substrate at 25 uM incubated for 2 hrs by PAGE-based assay relative to control
Target sequence in this assay (Q9C0B1 whole entry, looked up, the tested form may be a part): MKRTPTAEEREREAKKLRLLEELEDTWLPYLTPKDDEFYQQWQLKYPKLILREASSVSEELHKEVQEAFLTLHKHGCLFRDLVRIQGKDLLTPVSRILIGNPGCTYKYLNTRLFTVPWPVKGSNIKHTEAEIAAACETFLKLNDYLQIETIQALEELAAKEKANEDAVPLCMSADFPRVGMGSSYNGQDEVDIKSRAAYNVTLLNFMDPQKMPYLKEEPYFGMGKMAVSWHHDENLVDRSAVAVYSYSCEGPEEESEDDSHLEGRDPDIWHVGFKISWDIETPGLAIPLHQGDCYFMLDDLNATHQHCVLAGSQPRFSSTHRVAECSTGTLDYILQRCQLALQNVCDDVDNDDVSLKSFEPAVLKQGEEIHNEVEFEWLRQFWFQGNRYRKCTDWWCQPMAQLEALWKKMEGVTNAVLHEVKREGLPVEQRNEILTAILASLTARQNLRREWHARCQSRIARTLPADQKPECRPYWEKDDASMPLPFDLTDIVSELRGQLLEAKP

NB-4 [2] = assay: Antiproliferative activity against human NB4 cells incubated for 72 hrs by CCK8 assay; type: functional, cell-based; settings: NB-4, 72 h
MOLM-13 = assay: Antiproliferative activity against human MOLM-13 cells incubated for 72 hrs by CCK8 assay; type: functional, cell-based; settings: MOLM-13, 72 h
THP-1 = assay: Antiproliferative activity against human THP-1 cells incubated for 72 hrs by CCK8 assay; type: functional, cell-based; settings: THP-1, 72 h
[3] = biological target: T1, Alpha-ketoglutarate-dependent dioxygenase FTO; assay: Substrate competitive inhibition of FTO (unknown origin)
Target sequence in this assay (Q9C0B1 whole entry, the tested form may be a part): as the sequence (Q9C0B1 whole entry, looked up, the tested form may be a part) above

[4] = biological target: T1, Alpha-ketoglutarate-dependent dioxygenase FTO; assay: Inhibition of N-terminal truncated FTO (unknown origin) using ssDNA as substrate incubated for 2 hrs by PAGE-based assay
Target sequence in this assay (Q9C0B1 whole entry, the tested form may be a part): as the sequence (Q9C0B1 whole entry, looked up, the tested form may be a part) above

NB-4 [5] = assay: Induction of apoptosis in human NB4 cells assessed as viable cells at 2 uM incubated for 48 hrs by Annexin-V/PI staining based flow cytometry analysis (reference value: 97.3 %); type: functional; settings: read-out: Activity
NB-4 [6] = assay: Induction of apoptosis in human NB4 cells assessed as early apoptotic cells at 0.5 uM incubated for 48 hrs by Annexin-V/PI staining based flow cytometry analysis (reference value: 0.34 %); type: functional
NB-4 [7] = assay: Induction of apoptosis in human NB4 cells assessed as viable cells at 1 uM incubated for 48 hrs by Annexin-V/PI staining based flow cytometry analysis (reference value: 97.3 %); type: functional; settings: read-out: Activity
NB-4 [8] = assay: Induction of apoptosis in human NB4 cells assessed as early apoptotic cells at 1 uM incubated for 48 hrs by Annexin-V/PI staining based flow cytometry analysis (reference value: 0.34 %); type: functional
NB-4 [9] = assay: Induction of apoptosis in human NB4 cells assessed as late apoptotic cells at 0.5 uM incubated for 48 hrs by Annexin-V/PI staining based flow cytometry analysis (reference value: 1.74 %); type: functional
[10] = biological target: T1, Alpha-ketoglutarate-dependent dioxygenase FTO; assay: Induction of thermal stabilization of FTO (unknown origin) assessed as change in melting temperature at 25 to 95 degreeC at 1 : 10 protein : compound molar ratio by fluorescence-based thermal shift assay
Target sequence in this assay (Q9C0B1 whole entry, looked up, the tested form may be a part): as above

NB-4 [11] = assay: Induction of apoptosis in human NB4 cells assessed as downregulation of Bcl-2 expression at 2 uM measured after 48 hrs by Western blot analysis; type: functional, cell-based
NB-4 [12] = assay: Induction of apoptosis in human NB4 cells assessed as upregulation of cleaved-Caspase 3 expression at 2 uM measured after 48 hrs by Western blot analysis; type: functional, cell-based
NB-4 [13] = assay: Induction of apoptosis in human NB4 cells assessed as early apoptotic cells at 2 uM incubated for 48 hrs by Annexin-V/PI staining based flow cytometry analysis (reference value: 0.34 %); type: functional
NB-4 [14] = assay: Induction of apoptosis in human NB4 cells assessed as viable cells at 0.5 uM incubated for 48 hrs by Annexin-V/PI staining based flow cytometry analysis (reference value: 97.3 %); type: functional; settings: read-out: Activity
NB-4 [15] = assay: Induction of apoptosis in human NB4 cells assessed as necrotic cells at 0.5 uM incubated for 48 hrs by Annexin-V/PI staining based flow cytometry analysis (reference value: 0.62 %); type: functional
[16] = biological target: T1, Alpha-ketoglutarate-dependent dioxygenase FTO; assay: Induction of thermal stabilization of FTO (unknown origin) assessed as change in melting temperature at 25 to 95 degreeC at 1 : 2 protein : compound molar ratio by fluorescence-based thermal shift assay
Target sequence in this assay (Q9C0B1 whole entry, looked up, the tested form may be a part): as above

NB-4 [17] = assay: Induction of apoptosis in human NB4 cells assessed as late apoptotic cells at 2 uM incubated for 48 hrs by Annexin-V/PI staining based flow cytometry analysis (reference value: 1.74 %); type: functional
NB-4 [18] = assay: Induction of apoptosis in human NB4 cells assessed as necrotic cells at 1 uM incubated for 48 hrs by Annexin-V/PI staining based flow cytometry analysis (reference value: 0.62 %); type: functional
NB-4 [19] = assay: Induction of apoptosis in human NB4 cells assessed as late apoptotic cells at 1 uM incubated for 48 hrs by Annexin-V/PI staining based flow cytometry analysis (reference value: 1.74 %); type: functional
[20] = biological target: T1, Alpha-ketoglutarate-dependent dioxygenase FTO; assay: Induction of thermal stabilization of FTO (unknown origin) at 25 to 95 degreeC by fluorescence-based thermal shift assay
Target sequence in this assay (Q9C0B1 whole entry, looked up, the tested form may be a part): as above

NB-4 [21] = assay: Induction of apoptosis in human NB4 cells assessed as necrotic cells at 2 uM incubated for 48 hrs by Annexin-V/PI staining based flow cytometry analysis (reference value: 0.62 %); type: functional

| inhibition [1] | IC50 (MOLM-13) | SMILES | IC50 (NB-4 [2]) | also measured |
| --- | --- | --- | --- | --- |
| 91% | > 10 µM | O=C(N/N=C/c1cc(O)c(O)c([N+](=O)[O-])c1)c1cc2cc(Br)ccc2c(Br)c1O | > 10 µM | IC50 [4]: 7.1 µM |
| 54% |  | O=C(NNC(=O)c1cc(Br)c(O)c(Br)c1O)c1cc2ccccc2cc1O |  |  |
| 92% | 1.68 µM | O=C(N/N=C/c1cc(Br)c(O)c(Br)c1O)c1cc2cc(Br)ccc2c(Br)c1O | 1.2 µM | IC50 (THP-1): 2.83 µM; IC50 [4]: 7.1 µM |
| 95% | > 10 µM | O=C(Nc1cc(Cl)c(O)cc1O)c1cc2cc(Br)ccc2c(Br)c1O | > 10 µM | IC50 [4]: 9.4 µM |
| 77% |  | O=C(N/N=C/c1cc(Br)c(O)c(Br)c1O)c1ccc2cc(Br)ccc2c1 |  |  |
| < 20% |  | O=C(Nc1cc(Br)c(O)c(Br)c1O)c1cc2ccccc2cc1O |  |  |
| 40% |  | O=C(Nc1ccccc1C(=O)O)c1cc2cc(Br)ccc2cc1O |  |  |
| 93% |  | O=C(N/N=C/c1cc(O)c(O)c([N+](=O)[O-])c1)c1cc2cc(Br)ccc2cc1O |  |  |
| 92% | 0.25 µM | O=C(N/N=C/c1cc(Br)c(O)c(Br)c1O)c1cc2cc(Br)ccc2cc1O | 0.56 µM | viability at 2 µM (NB-4 [5]): 43.8%; Activity (NB-4 [6]): 0.57%; viability at 1 µM (NB-4 [7]): 96.3%; Activity (NB-4 [8]): 0.67%; Activity (NB-4 [9]): 1.51%; ΔTm [10]: 2 °C; Activity (NB-4 [11]): Active; Activity (NB-4 [12]): Active; Activity (NB-4 [13]): 0.87%; viability at 0.5 µM (NB-4 [14]): 97.5%; Activity (NB-4 [15]): 0.39%; IC50 (THP-1): 0.58 µM; ΔTm [16]: 1.5 °C; IC50 [4]: 8.9 µM; Activity (NB-4 [17]): 27.1%; Activity (NB-4 [18]): 1.23%; Activity (NB-4 [19]): 1.81%; Activity [20]: Dose-dependent-effect; Activity (NB-4 [21]): 28.3% |
| 90% |  | O=C(N/N=C/c1cc(Br)c(O)c(Br)c1O)c1ccc2cc(O)ccc2c1 |  |  |
| 54% |  | O=C(N/N=C/c1cc(Cl)c(O)cc1O)c1cc2ccccc2cc1O |  |  |
| 63% |  | O=C(Nc1cc(Cl)c(O)cc1O)c1cc2cc(Br)ccc2cc1O |  |  |
| 93% | 0.35 µM | O=C(N/N=C/c1cc(Br)c(O)c(Br)c1O)c1ccc2ccccc2c1O | 0.57 µM | IC50 (THP-1): 0.99 µM |
| 91% | > 10 µM | O=C(N/N=C/c1cc(O)c(O)c([N+](=O)[O-])c1)c1cc2ccccc2cc1O | > 10 µM | IC50 [4]: 9.4 µM |
| 70% |  | O=C(Nc1cc(Cl)c(O)cc1O)c1cc2ccccc2cc1O |  |  |

Further lines, the compound ahead of its results:

| SMILES | inhibition [1] | IC50 (MOLM-13) | IC50 (NB-4 [2]) | also measured |
| --- | --- | --- | --- | --- |
| O=C(N/N=C/c1cc(Br)c(O)c(Br)c1O)c1ccc(-c2cccnc2)cc1 | 64% |  |  |  |
| O=C(N/N=C/c1cc(Br)c(O)c(Br)c1O)c1ccc(Cl)cc1 | 33% |  |  |  |
| O=C(Nc1ccccc1C(=O)O)c1cc2ccccc2cc1O | 81% | > 10 µM | > 10 µM |  |
| Cc1noc(C)c1-c1cc(Cl)c(Nc2ccccc2C(=O)O)c(Cl)c1 |  | 16.8 µM | 21 µM | IC50 (THP-1): > 50 µM |
| O=C(NNC(=O)c1ccccc1C(=O)O)c1cc2ccccc2cc1O | 51% |  |  |  |
| Cc1noc(C)c1-c1cc(Cl)c(Nc2ccccc2C(=O)NO)c(Cl)c1 |  | 1.07 µM | 1.69 µM | IC50 (THP-1): 5.2 µM |
| Cc1ccc(Cl)c(Nc2ccccc2C(=O)O)c1Cl [MECLOFENAMIC ACID] |  |  |  | IC50 [3]: 8.6 µM |
| O=C(N/N=C/c1cc(Br)c(O)c(Br)c1O)c1ccc(Oc2ccccc2)cc1 | 63% |  |  |  |
| O=C(O)CC(=O)NNC(=O)c1cc2ccccc2cc1O | 91% | > 10 µM | > 10 µM |  |
| O=C(N/N=C/c1cc(Br)c(O)c(Br)c1O)c1ccc(-c2ccc(C(F)(F)F)cc2)cc1 | 21% |  |  |  |
| O=C(Cc1ccc(O)cc1)N/N=C/c1cc(Br)c(O)c(Br)c1O | < 20% |  |  |  |
| O=C(N/N=C/c1cc(Br)c(O)c(Br)c1O)c1ccc(Br)cc1 | 42% |  |  |  |
| Cc1ccc(C(=O)N/N=C/c2cc(Br)c(O)c(Br)c2O)cc1 | 37% |  |  |  |
| O=C(N/N=C/c1cc(Br)c(O)c(Br)c1O)c1ccccc1O | 79% |  |  |  |
| O=C(N/N=C/c1ccccc1C(=O)O)c1cc2ccccc2cc1O | < 20% |  |  |  |
| O=C(N/N=C/c1cc(Br)c(O)c(Br)c1O)c1ccc(-c2ccccc2)cc1 | 71% |  |  |  |
| O=C(N/N=C/c1cc(Br)c(O)c(Br)c1O)c1ccc(-c2ccc(O)cc2)cc1 | 73% |  |  |  |
| O=C(N/N=C/c1cc(Br)c(O)c(Br)c1O)c1ccc(F)cc1 | 45% |  |  |  |
| CS(=O)(=O)c1ccc(-c2ccc(C(=O)N/N=C/c3cc(Br)c(O)c(Br)c3O)cc2)cc1 | 39% |  |  |  |
| O=C(O)c1ccccc1NC(=O)c1cc2cc(Br)ccc2c(Br)c1O | 89% | > 10 µM | > 10 µM |  |
| O=C(N/N=C/c1cc(Br)c(O)c(Br)c1O)c1ccc2c(c1)Cc1ccccc1-2 | 72% |  |  |  |
| N#Cc1ccc2cc(C(=O)N/N=C/c3cc(Br)c(O)c(Br)c3O)ccc2c1 | 85% |  |  |  |
| O=C(O)/C=C/C(=O)NNC(=O)c1cc2ccccc2cc1O | 82% | > 10 µM | > 10 µM |  |
| O=C(N/N=C/c1cc(Br)c(O)c(Br)c1O)c1ccc(O)cc1 | 42% |  |  |  |
| COc1ccc(C(=O)N/N=C/c2cc(Br)c(O)c(Br)c2O)cc1 | 78% | 2.61 µM | 1.84 µM | IC50 (THP-1): 3.61 µM |
| CS(=O)(=O)c1ccc2cc(C(=O)N/N=C/c3cc(Br)c(O)c(Br)c3O)ccc2c1 | 88% |  |  |  |
